What all share (format): biochemical
One experiment deals with T1, Human Tyk2 kinase domain (Homo sapiens, UniProt P29597).
T1 construct: comprising amino acids 886 to 1187 with 10 additional histidine residues; 10xHis (histidine tag) (C, cleaved yes); made in house
T1 sequence (P29597 886-1187): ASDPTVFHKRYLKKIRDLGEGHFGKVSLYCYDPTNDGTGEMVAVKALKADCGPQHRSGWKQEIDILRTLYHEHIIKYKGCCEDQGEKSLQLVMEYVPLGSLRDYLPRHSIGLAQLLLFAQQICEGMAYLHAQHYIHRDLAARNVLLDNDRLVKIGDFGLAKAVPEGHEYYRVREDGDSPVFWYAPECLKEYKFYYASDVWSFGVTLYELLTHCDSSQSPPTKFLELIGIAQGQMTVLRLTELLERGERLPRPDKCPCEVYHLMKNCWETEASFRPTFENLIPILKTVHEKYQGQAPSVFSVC
Nature of the experiment: Tyk2 Inhibition Assay (Omnia kinase fluorescence peptide substrate assay). Conditions: averaged IC50 ranges; assay of Example A; 10 μM (Km app) or 1 mM ATP, 2 nM Tyk2. The method, boiled down:
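2 nM His-tag-cleaved kinase domain (aa 886–1187) with 8 μM Omnia Y12 peptide, 10 μM (Km app) or 1 mM ATP, pH 7.4 HEPES/10 mM MgCl2, 2% DMSO. Fluorescence (ex 360/em 485 nm) every 50 s for 45 min; IC50 from 4-parameter fit of POC, top dose 10 μM.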

The target in the next experiment is T2, JAK1 (Homo sapiens, UniProt P23458).
T2 construct: purchased Invitrogen Corporation, Carlsbad, Calif; PV4775
Nature of the experiment: JAK1 Inhibition Assay (Omnia kinase fluorescence peptide substrate assay). The following applies: averaged IC50 ranges; assay of Example B; 40 μM (Km app) or 1 mM ATP, 15 nM JAK1.

In the next experiment the target is T3, JAK2 (Homo sapiens, UniProt O60674).
T3 construct: purchased Invitrogen Corporation, Carlsbad, Calif; PV4288
Nature of the experiment: JAK2 Inhibition Assay (Omnia kinase fluorescence peptide substrate assay). Conditions: averaged IC50 ranges; assay of Example C; 25 μM (Km app) or 1 mM ATP, 5 nM JAK2. The method, boiled down:
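A 10-point, 3-fold compound series (top 10 μM, 2% DMSO) was tested against 5 nM JAK2 with 10 μM Omnia Y7 substrate and either 1 mM or 25 μM (Km app) ATP. Buffer: pH 7.4 HEPES, MgCl2, Triton X-100, DTT. Sox fluorescence was monitored kinetically for 45 min; IC50 is the concentration giving 50 POC on a 4-parameter fit.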

Another experiment deals with T4, JAK3 (Homo sapiens, UniProt P52333).
T4 construct: purchased Invitrogen Corporation, Carlsbad, Calif; PV4080
T4 sequence (P52333 1-1124): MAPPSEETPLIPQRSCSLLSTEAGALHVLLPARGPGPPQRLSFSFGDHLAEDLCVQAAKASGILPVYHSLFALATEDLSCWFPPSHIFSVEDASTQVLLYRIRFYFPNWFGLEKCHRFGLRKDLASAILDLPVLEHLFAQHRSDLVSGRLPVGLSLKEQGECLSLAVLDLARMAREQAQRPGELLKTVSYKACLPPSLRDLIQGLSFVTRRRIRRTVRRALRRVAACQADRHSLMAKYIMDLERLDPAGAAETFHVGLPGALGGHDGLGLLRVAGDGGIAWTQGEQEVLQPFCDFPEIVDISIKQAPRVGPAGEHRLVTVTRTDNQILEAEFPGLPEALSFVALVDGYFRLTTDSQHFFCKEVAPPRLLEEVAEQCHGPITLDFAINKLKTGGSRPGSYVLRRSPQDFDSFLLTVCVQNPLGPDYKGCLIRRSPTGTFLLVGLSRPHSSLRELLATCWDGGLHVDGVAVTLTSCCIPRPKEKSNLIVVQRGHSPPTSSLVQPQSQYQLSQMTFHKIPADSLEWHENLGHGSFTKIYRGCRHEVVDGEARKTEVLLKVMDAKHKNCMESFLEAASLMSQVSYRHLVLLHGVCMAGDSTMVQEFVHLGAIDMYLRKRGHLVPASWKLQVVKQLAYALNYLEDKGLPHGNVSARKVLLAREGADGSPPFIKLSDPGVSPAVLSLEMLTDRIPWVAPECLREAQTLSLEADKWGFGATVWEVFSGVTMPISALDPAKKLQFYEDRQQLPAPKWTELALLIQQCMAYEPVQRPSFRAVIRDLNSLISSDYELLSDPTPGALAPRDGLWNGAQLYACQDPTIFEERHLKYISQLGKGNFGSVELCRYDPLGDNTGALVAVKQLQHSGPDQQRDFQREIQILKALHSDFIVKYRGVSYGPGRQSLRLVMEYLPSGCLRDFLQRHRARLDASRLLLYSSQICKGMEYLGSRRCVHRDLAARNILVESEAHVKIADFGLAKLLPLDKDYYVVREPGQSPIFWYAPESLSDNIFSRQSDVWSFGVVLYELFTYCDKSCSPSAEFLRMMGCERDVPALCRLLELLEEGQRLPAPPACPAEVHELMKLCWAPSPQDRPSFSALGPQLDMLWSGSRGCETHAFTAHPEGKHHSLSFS
Nature of the experiment: JAK3 Inhibition Assay (Omnia kinase fluorescence peptide substrate assay). Conditions: averaged IC50 ranges; assay of Example D; 10 μM (Km app) or 1 mM ATP, 2.5 nM JAK3. The method, boiled down:
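Kinase at 2.5 nM with 10 µM Omnia Y7 peptide and 10 µM (Km app) or 1 mM ATP in 25 mM HEPES pH 7.4, 10 mM MgCl2, 1 mM DTT, 0.01% Triton X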

A value given as a limit tells only on which side of the number the result lay.

T3 sequence (O60674 whole entry): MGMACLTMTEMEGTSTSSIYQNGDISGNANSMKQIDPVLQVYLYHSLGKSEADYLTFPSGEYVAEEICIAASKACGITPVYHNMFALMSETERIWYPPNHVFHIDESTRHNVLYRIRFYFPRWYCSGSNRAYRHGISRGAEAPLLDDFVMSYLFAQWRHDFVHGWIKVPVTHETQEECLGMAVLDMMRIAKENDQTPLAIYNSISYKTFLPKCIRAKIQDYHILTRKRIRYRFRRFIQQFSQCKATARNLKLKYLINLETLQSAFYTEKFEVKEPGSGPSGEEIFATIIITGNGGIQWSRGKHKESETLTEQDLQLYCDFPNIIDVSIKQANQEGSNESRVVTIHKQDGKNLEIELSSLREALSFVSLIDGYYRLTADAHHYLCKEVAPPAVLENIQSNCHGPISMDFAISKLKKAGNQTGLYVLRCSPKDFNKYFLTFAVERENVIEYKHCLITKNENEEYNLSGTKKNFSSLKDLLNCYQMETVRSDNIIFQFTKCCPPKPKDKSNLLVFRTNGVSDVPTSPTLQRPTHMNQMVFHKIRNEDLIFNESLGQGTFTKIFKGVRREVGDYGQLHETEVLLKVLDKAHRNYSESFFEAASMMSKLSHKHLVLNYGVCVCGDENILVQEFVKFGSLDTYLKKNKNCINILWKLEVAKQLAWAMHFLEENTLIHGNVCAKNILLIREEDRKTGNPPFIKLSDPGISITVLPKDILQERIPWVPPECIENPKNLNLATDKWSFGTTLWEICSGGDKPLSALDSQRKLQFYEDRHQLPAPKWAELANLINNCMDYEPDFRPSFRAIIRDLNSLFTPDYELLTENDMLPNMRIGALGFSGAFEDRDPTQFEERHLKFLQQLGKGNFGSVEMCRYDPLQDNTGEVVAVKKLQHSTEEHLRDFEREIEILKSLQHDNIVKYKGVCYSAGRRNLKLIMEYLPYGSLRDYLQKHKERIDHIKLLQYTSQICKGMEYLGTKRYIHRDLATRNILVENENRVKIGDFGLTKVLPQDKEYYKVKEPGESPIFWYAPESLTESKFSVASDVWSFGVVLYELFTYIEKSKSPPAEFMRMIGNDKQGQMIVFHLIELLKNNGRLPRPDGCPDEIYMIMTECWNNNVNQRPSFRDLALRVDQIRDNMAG
T2 sequence (P23458 whole entry): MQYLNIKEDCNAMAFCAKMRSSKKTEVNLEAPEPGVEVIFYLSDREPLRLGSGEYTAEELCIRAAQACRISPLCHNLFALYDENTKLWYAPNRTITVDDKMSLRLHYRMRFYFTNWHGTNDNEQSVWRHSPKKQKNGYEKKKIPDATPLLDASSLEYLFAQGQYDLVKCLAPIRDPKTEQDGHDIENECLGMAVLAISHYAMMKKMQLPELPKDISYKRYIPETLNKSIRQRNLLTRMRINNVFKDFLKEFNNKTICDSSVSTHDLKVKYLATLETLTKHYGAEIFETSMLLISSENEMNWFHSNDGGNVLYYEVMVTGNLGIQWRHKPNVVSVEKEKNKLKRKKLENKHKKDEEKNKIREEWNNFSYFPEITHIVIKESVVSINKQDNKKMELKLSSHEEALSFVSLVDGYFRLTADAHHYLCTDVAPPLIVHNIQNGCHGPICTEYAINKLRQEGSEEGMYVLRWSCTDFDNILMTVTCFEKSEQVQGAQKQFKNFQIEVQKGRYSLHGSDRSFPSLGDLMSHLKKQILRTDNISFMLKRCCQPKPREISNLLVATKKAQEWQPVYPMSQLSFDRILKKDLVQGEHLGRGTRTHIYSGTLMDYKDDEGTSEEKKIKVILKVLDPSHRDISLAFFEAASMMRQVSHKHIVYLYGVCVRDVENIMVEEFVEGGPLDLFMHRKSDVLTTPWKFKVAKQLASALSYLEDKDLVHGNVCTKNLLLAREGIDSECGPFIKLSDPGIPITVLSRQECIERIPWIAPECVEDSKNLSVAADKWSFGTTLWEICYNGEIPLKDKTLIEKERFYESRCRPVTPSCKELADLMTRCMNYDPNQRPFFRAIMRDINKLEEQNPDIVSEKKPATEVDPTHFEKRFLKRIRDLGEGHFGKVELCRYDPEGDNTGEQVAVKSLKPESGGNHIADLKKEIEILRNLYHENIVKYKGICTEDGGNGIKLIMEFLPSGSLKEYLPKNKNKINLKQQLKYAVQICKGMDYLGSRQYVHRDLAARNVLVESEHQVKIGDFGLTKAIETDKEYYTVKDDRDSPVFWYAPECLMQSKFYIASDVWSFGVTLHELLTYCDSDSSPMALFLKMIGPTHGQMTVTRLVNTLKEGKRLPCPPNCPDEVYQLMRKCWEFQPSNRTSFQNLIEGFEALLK

For orientation: IC50 means the concentration needed to halve the response being measured. `Cn1cc(-c2cc3nccn3c(-c3cnn(C4(CC#N)CN(CCC(F)(F)F)C4)c3)n2)cn1` [Example 86, 2-(3-(4-(7-(1-methyl-1H-pyrazol-4-yl)imidazo[1,2-c]pyrimidin-5-yl)-1H-pyrazol-1-yl)-1-(3,3,3-trifluoropropyl)azetidin-3-yl)acetonitrile]: the IC50 on Human Tyk2 kinase domain was 10 to 100 nM; at JAK1, 100 to 1000 nM; on JAK2 it was 100 to 1000 nM; at JAK3, greater than 1000 nM.
Consider `Cn1cc(-c2cc3nccn3c(-c3cnn(C4(CC#N)CN(CC5CCC5)C4)c3)n2)cn1` [Example 87, 2-(1-(cyclobutylmethyl)-3-(4-(7-(1-methyl-1H-pyrazol-4-yl)imidazo[1,2-c]pyrimidin-5-yl)-1H-pyrazol-1-yl)azetidin-3-yl)acetonitrile], for which the 50% inhibitory concentration (IC50) on Human Tyk2 kinase domain is 10 to 100 nM; at JAK1, greater than 1000 nM; at JAK2 it was 100 to 1000 nM; on JAK3, greater than 1000 nM.
Take `Cn1cc(-c2cc3nccn3c(-c3cnn(C4(CC#N)CN(Cc5ccccc5)C4)c3)n2)cn1` [Example 88, 2-(1-benzyl-3-(4-(7-(1-methyl-1H-pyrazol-4-yl)imidazo[1,2-c]pyrimidin-5-yl)-1H-pyrazol-1-yl)azetidin-3-yl)acetonitrile]: the half-inhibitory concentration (IC50) is 100 to 1000 nM on Human Tyk2 kinase domain, greater than 1000 nM at JAK1, 100 to 1000 nM against JAK2 and greater than 1000 nM on JAK3.
As for `Cn1cc(-c2cc3nccn3c(-c3cnn(C4(CC#N)CN(CC5CCOCC5)C4)c3)n2)cn1` [Example 89, 2-(3-(4-(7-(1-methyl-1H-pyrazol-4-yl)imidazo[1,2-c]pyrimidin-5-yl)-1H-pyrazol-1-yl)-1-((tetrahydro-2H-pyran-4-yl)methyl)azetidin-3-yl)acetonitrile], the IC50 against Human Tyk2 kinase domain was 100 to 1000 nM; against JAK1 it was greater than 1000 nM; against JAK2, greater than 1000 nM; against JAK3 it was greater than 1000 nM.
In the case of `Cn1cc(-c2cc3ncc(Cl)n3c(-c3cnn(C4(CC#N)CN(CC(F)(F)F)C4)c3)n2)cn1` [Example 90, 2-(3-(4-(3-Chloro-7-(1-methyl-1H-pyrazol-4-yl)imidazo[1,2-c]pyrimidin-5-yl)-1H-pyrazol-1-yl)-1-(2,2,2-trifluoroethyl)azetidin-3-yl)acetonitrile], the IC50 was less than 10 nM against Human Tyk2 kinase domain, 100 to 1000 nM against JAK1, 10 to 100 nM at JAK2 and 100 to 1000 nM against JAK3.
On to `CC(C)S(=O)(=O)N1CC(CC#N)(n2cc(-c3nc(-c4cnn(C)c4)cc4nccn34)cn2)C1` [Example 91, 2-(1-(Isopropylsulfonyl)-3-(4-(7-(1-methyl-1H-pyrazol-4-yl)imidazo[1,2-c]pyrimidin-5-yl)-1H-pyrazol-1-yl)azetidin-3-yl)acetonitrile], for which the IC50 is 10 to 100 nM at Human Tyk2 kinase domain, 100 to 1000 nM against JAK1, 100 to 1000 nM against JAK2 and greater than 1000 nM against JAK3.
In the case of `Cn1cc(-c2cc3nccn3c(-c3cnn(C4(CC#N)CN(S(C)(=O)=O)C4)c3)n2)cn1` [Example 92, 2-(3-(4-(7-(1-methyl-1H-pyrazol-4-yl)imidazo[1,2-c]pyrimidin-5-yl)-1H-pyrazol-1-yl)-1-(methylsulfonyl)azetidin-3-yl)acetonitrile], the IC50 against Human Tyk2 kinase domain was less than 10 nM; against JAK1 it was 100 to 1000 nM; against JAK2, 10 to 100 nM; at JAK3, greater than 1000 nM.
On the same counts, the results for `CCCS(=O)(=O)N1CC(CC#N)(n2cc(-c3nc(-c4cnn(C)c4)cc4nccn34)cn2)C1` [Example 93, 2-(3-(4-(7-(1-methyl-1H-pyrazol-4-yl)imidazo[1,2-c]pyrimidin-5-yl)-1H-pyrazol-1-yl)-1-(propylsulfonyl)azetidin-3-yl)acetonitrile] are less than 10 nM, 100 to 1000 nM, 100 to 1000 nM and greater than 1000 nM.
On the same counts, the results for `Cn1cc(-c2cc3nccn3c(-c3cnn(C4(CC#N)CN(S(=O)(=O)C5CCCCC5)C4)c3)n2)cn1` [Example 94, 2-(1-(cyclohexylsulfonyl)-3-(4-(7-(1-methyl-1H-pyrazol-4-yl)imidazo[1,2-c]pyrimidin-5-yl)-1H-pyrazol-1-yl)azetidin-3-yl)acctonitrile] are 10 to 100 nM, greater than 1000 nM, 100 to 1000 nM and greater than 1000 nM.
In the case of `Cn1cc(-c2cc3nccn3c(-c3cnn(C4(CC#N)CN(S(=O)(=O)C5CC5)C4)c3)n2)cn1` [Example 95, 2-(1-(cyclopropylsulfonyl)-3-(4-(7-(1-methyl-1H-pyrazol-4-yl)imidazo[1,2-c]pyrimidin-5-yl)-1H-pyrazol-1-yl)azetidin-3-yl)acetonitrile], the half-maximal inhibitory concentration (IC50) on Human Tyk2 kinase domain was less than 10 nM; on JAK1, 10 to 100 nM; against JAK2, 10 to 100 nM; against JAK3 it was greater than 1000 nM.
With `Cn1cc(-c2cc3nccn3c(-c3cnn(C4(CC#N)CN(S(=O)(=O)C(F)(F)F)C4)c3)n2)cn1` [Example 96, 2-(3-(4-(7-(1-Methyl-1H-pyrazol-4-yl)imidazo[1,2-c]pyrimidin-5-yl)-1H-pyrazol-1-yl)-1-(trifluoromethylsulfonyl)azetidin-3-yl)acetonitrile], the IC50 against Human Tyk2 kinase domain was less than 10 nM; at JAK1 it was less than 10 nM; against JAK2 it was less than 10 nM; at JAK3, 100 to 1000 nM.
On to `CCS(=O)(=O)N1CC(CC#N)(n2cc(-c3nc(-c4cnn(C)c4)cc4nccn34)cn2)C1` [Example 97, 2-(1-(ethylsulfonyl)-3-(4-(7-(1-methyl-1H-pyrazol-4-yl)imidazo[1,2-c]pyrimidin-5-yl)-1H-pyrazol-1-yl)azetidin-3-yl)acetonitrile], for which the 50% inhibitory concentration (IC50) on Human Tyk2 kinase domain is less than 10 nM; on JAK1 it was 100 to 1000 nM; on JAK2, 10 to 100 nM; against JAK3 it was greater than 1000 nM.
On the same counts, the results for `Cn1cc(-c2cc3nccn3c(-c3cnn(C4(CC#N)CN(S(=O)(=O)CCC(F)(F)F)C4)c3)n2)cn1` [Example 98, 2-(3-(4-(7-(1-methyl-1H pyrazol-4-yl)imidazo[1,2-c]pyrimidin-5-yl)-1H-pyrazol-1-yl)-1-(3,3,3-trifluoropropylsulfonyl)azetidin-3-yl)acetonitrile] are less than 10 nM, 100 to 1000 nM, 10 to 100 nM and greater than 1000 nM.
On the same counts, the results for `Cn1cc(-c2cc3nccn3c(-c3cnn(C4(CC#N)CN(S(=O)(=O)c5ccccc5)C4)c3)n2)cn1` [Example 99, 2-(3-(4-(7-(1-methyl-1H-pyrazol-4-yl)imidazo[1,2-c]pyrimidin-5-yl)-1H-pyrazol-1-yl)-1-(phenylsulfonyl)azetidin-3-yl)acetonitrile] are 10 to 100 nM, 100 to 1000 nM, 100 to 1000 nM and greater than 1000 nM.
